From patent publication US12522593B2, “Azacycloalkyl carbonyl cyclic amine compound” (Alivexis, Inc., priority 2022, dated 2026)

Tests used:
[1] = biological target: CTSC in U937 cells (Homo sapiens (Human), UniProt P53634); assay: Intracellular CTSC inhibition assay (in vitro), LLOMe-induced cell death in U937 cells; assay type: cell-based; conditions: 3 hours culture, CellTiter-Glo
Protocol: 2. Intracellular CTSC Inhibition Assay (In Vitro)
A test specimen was evaluated by a degree of cell death in a case where a substrate LLOMe (L-Leucyl-L-Leucine methyl ester, hydrobromide salt, Sigma, 555045152) was added to U937 cells. The LLOMe is taken up into the cells by endocytosis and cleaved by CTSC. A product thereof induces lysosomal damage in cells and causes cell death in leukocytes and the like. Therefore, since the degree of cell death correlates with an amount of degradation of LLOMe, that is, with CTSC activity, by quantitatively analyzing the cell death, CTSC inhibitory activity of the test specimen in the cell was determined. CTSC inhibition assay was performed using a polystyrene-made white 384 well plate.
As the test specimen, a stock solution dissolved in DMSO was prepared so as to be 0.2 mmol/L, and in a case where a solution in which the stock solution was diluted 50-fold with a RPMI-1640 medium including 10% FBS was used as the maximum evaluation concentration (4000 nmol/L), a serially diluted solution was prepared by diluting the solution 3-fold with the medium. Thereafter, a 4-fold concentrated test specimen solution with the target final concentration was prepared.
U937 cells were cultured in a RPMI-1640 medium including 10% FBS, and diluted to prepare 90,000 cells/mL of cell suspension on the day of assay. 10 μL of the cell suspension was seeded per well. Next, 10 μL of the test specimen solution having a concentration 4 times the target final concentration was added thereto, and the mixture was allowed to stand for 30 minutes. Thereafter, 20 μL of a 300 μmol/L LLOMe solution dissolved in a RPMI-1640 medium including 10% FBS was added thereto, and the cells were cultured for 3 hours. After completion of the culture, 40 μL of CellTiter-Glo (registered trademark) reagent (Promega, G7570) was added to each well and mixed. After 15 minutes, 20 μL of the reaction solution in each well was transferred to a white 384 well plate, and a chemiluminescence intensity was measured with a plate reader. A 4-parameter regression analysis was performed with GraphPad Prism (manufactured by GraphPad Software) from a plot of the luminescence intensity and the sample concentration, and an IC50 value was calculated.
Results of test compounds of Formula (1) are shown in Table 2 as IC50 (nM) values for which 50% inhibition concentration is calculated based on CTSC inhibition (%). In the table, Ex indicates an example number.

[2] = biological target: human recombinant CTSC (Homo sapiens (Human), UniProt P53634); assay: CTSC inhibition assay (in vitro), fluorescent substrate GF-AFC; assay type: biochemical; conditions: 30 μmol/L GF-AFC, pH 5.0, 25° C.
Sequence of human recombinant CTSC (P53634 25-134): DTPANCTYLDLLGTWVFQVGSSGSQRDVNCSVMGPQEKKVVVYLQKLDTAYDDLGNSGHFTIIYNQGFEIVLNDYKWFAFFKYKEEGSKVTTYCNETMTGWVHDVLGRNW
Sequence of human recombinant CTSC (P53634 231-394): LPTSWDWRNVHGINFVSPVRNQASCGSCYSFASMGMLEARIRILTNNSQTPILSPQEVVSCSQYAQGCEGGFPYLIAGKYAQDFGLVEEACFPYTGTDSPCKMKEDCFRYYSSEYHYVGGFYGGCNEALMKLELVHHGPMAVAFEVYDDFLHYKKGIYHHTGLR
Sequence of human recombinant CTSC (P53634 395-463): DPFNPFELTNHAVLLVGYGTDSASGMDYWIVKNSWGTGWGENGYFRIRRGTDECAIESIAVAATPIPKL
Protocol: 1. CTSC Inhibition Assay (In Vitro)
A test specimen was evaluated by a CTSC inhibition assay using a fluorescent substrate GF-AFC (Gly-Phe-7-Amino-4-trifluoromethylcoumarin, MP Biomedical, 03AFC03325). Since the GF-AFC is converted by CTSC to aminotrifluoromethylcoumarin having a specific fluorescence wavelength and the produced amount is proportional to CTSC activity, quantitative analysis was performed by measuring a fluorescence intensity with a plate reader. CTSC inhibition assay for each compound was performed using a polystyrene-made non-adhesive surface-treated black 384 well plate under the following conditions.
A human recombinant CTSC (R&D systems, 1071-CY) was dissolved in a CTSC active cocktail (20 ng/mL of human recombinant cathepsin L (R&D systems, 952-CY, 25 mmol/L MES/NaOH (pH: 6.0), 5 mmol/L dithiothreitol (DTT)) so as to be 100 ng/mL and incubated at 18° C. for 30 minutes. The solution was diluted with a CTSC assay buffer (50 mmol/L MES/NaOH (pH: 5.0), 50 mmol/L NaCl, 0.001% Triton X-100, mmol/L DTT) so as to be 2 ng/mL in a case of performing CTSC inhibition assay.
The test specimen was dissolved in dimethylsulfoxide (DMSO) at 10 mmol/L to prepare a stock solution. In a case where a solution in which the stock solution was diluted 15-fold with DMSO was used as the maximum evaluation concentration (0.667 mmol/L), 5-fold dilution was repeated in DMSO from the solution to prepare a serially diluted solution. 248.8 μL of the CTSC assay buffer was added to 1.12 μL of the serially diluted sample prepared in the DMSO to prepare a solution of a CTSC inhibition assay compound.
The final composition of the CTSC inhibition assay mixture was 0.66 ng/mL activated CTSC, 50 mmol/L MES/NaOH (pH: 5.0), 50 mmol/L NaCl, 0.001% Triton X-100, 5 mmol/L DTT, 30 μmol/L GF-AFC, and 0.15% DMSO, and the procedure was as follows. That is, 4 μL of the compound solution and 4 μL of the 2 ng/mL activated CTSC solution were mixed with each other in a 384 well plate and incubated at 25° C. for 30 minutes. Thereafter, 4 μL of the GF-AFC solution dissolved in the CTSC assay buffer was added to the mixture so as to be 90 μmol/L. After mixing to be uniform, a fluorescence emission intensity at 505 nm in a case of being excited at 390 nm after incubating at 25° C. for 1 hour was measured with a plate reader. A 4-parameter regression analysis was performed with GraphPad Prism (manufactured by GraphPad Software) from a plot of the fluorescence intensity at 505 nm and the sample concentration, and an IC50 value was calculated.
Results of test compounds of Formula (I) are shown in Table 1 as IC50 (nM) values for which 50% inhibition concentration is calculated based on CTSC inhibition (%). In the table, Ex indicates an example number.

Sequence of CTSC in U937 cells (P53634 25-463): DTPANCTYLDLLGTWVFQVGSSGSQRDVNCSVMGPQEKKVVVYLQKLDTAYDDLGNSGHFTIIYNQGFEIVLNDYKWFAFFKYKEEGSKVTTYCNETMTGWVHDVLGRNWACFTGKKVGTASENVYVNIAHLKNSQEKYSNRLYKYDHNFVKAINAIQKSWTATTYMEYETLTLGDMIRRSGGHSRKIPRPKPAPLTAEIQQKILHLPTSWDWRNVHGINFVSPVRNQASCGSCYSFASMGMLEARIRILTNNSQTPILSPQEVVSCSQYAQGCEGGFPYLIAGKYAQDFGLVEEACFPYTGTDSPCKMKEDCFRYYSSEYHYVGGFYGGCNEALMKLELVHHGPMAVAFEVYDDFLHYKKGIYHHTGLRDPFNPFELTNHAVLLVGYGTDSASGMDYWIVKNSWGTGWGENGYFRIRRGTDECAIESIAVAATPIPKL

| SMILES | IC50 [2] | IC50 [1] |
| --- | --- | --- |
| O=C([C@@H]1C[C@@H](O)C2(CCC2)CN1)N1CCC(n2nnc(-c3ccc(F)cn3)n2)CC1 [Example 105] | 2.53 nM | 3.97 nM |
| CC(C)C1(c2noc(C3CCC(F)(F)CC3)n2)CCN(C(=O)C2CCC(C)(C)CN2)CC1 (stereo not drawn) [Example 41] | 18.5 nM | 6.95 nM |
| O=C([C@@H]1C[C@@H](O)C2(CCC2)CN1)N1CCC(c2cnc(N3CCC(F)(F)CC3)s2)CC1 [Example 92] | 2.76 nM | 3.62 nM |
| CC1(C)CN[C@H](C(=O)N2CCC(c3nnn(-c4ccc(F)cc4)n3)CC2)C[C@H]1O [Example 90, (4-(2-(4-Fluorophenyl)-2H-tetrazol-5-yl)piperidin-1-yl)((2S,4R)-4-hydroxy-5,5-dimethylpiperidin-2-yl)methanone] | 4.34 nM | 0.54 nM |
| O=C([C@@H]1CC[C@@]2(CCO2)CN1)N1CCC(c2nc(C3CCC(F)(F)CC3)no2)(C(F)(F)F)CC1 [Example 11] | 7.73 nM | 11.5 nM |
| O=C([C@@H]1C[C@@H](O)C2(CCC2)CN1)N1CCC(c2nc(C3CC(F)(F)C3)no2)(N2CCOCC2)CC1 [Example 65] | 4.15 nM | 30.1 nM |
| CC(C)C1(c2nc(C3CC(F)(F)C3)no2)CCN(C(=O)[C@@H]2CC[C@@]3(CCO3)CN2)CC1 [Example 9] | 5.09 nM | 11.4 nM |
| CN(C1(c2nc(C3CC(F)(F)C3)no2)CCN(C(=O)[C@@H]2C[C@@H](O)C3(CCC3)CN2)CC1)S(C)(=O)=O [Example 78] | 5.68 nM | 129 nM |
| CC(C)C1(c2noc(C3CCC(F)(F)CC3)n2)CCN(C(=O)[C@H]2NC3CCC2CC3)CC1 [Example 23] | 88.8 nM | 60.9 nM |
| O=C([C@@H]1C[C@@H](O)C2(CCC2)CN1)N1CCC(c2ccc(F)cn2)(c2noc(C3CC(F)(F)C3)n2)CC1 [Example 44] | 2.74 nM | 4.24 nM |
| O=C([C@@H]1CC[C@@]2(CCO2)CN1)N1CCC(C(=O)NCC2CCC(F)(F)CC2)(C(F)(F)F)CC1 [Example 85] | 2.51 nM | 4.12 nM |
| O=C([C@@H]1C[C@@H](O)C2(CCC2)CN1)N1CCC(c2nnn(-c3ccc(F)c(F)c3)n2)CC1 [Example 96] | 1.89 nM | 0.37 nM |
| CN(CC1CCC(F)(F)CC1)C(=O)C1(C(F)(F)F)CCN(C(=O)[C@@H]2CC[C@@]3(CCO3)CN2)CC1 [Example 7] | 10.4 nM | 23.6 nM |
| O=C([C@@H]1CC[C@@]2(CCO2)CN1)N1CCC(c2nc(C3CCC(F)(F)CC3)cs2)(C(F)(F)F)CC1 [Example 4] | 4.85 nM | 5.64 nM |
| Cc1cnn(C2(c3noc(C4CC(F)(F)C4)n3)CCN(C(=O)[C@@H]3C[C@@H](O)C4(CCC4)CN3)CC2)c1 [Example 71] | 3.73 nM | 5.63 nM |
| O=C([C@@H]1C[C@@H](O)C2(CCC2)CN1)N1CCC(c2noc(C3CC(F)(F)C3)n2)(c2nccs2)CC1 [Example 68] | 2.92 nM | 5.44 nM |
| O=C([C@@H]1C[C@@H](O)C2(CCC2)CN1)N1CCC(c2noc(C3CCC(F)(F)CO3)n2)(C(F)(F)F)CC1 (stereo partly drawn) [Example 63, (4-(5-(5,5-Difluorotetrahydro-2H-pyran-2-yl)-1,2,4-oxadiazol-3-yl)-4-(trifluoromethyl)piperidin-1-yl)((7S,9R)-9-hydroxy-6-azaspiro[3.5]nonan-7-yl)methanone] | 1.85 nM | 1.01 nM |
| CC(C)C1(c2noc(C34CC(C3)C4)n2)CCN(C(=O)[C@@H]2C[C@@H](O)C3(CCC3)CN2)CC1 [Example 72] | 2.48 nM | 0.31 nM |
| CC(C)C1(C(=O)NC2CCC(F)(F)CC2)CN(C(=O)[C@@H]2C[C@@H](O)C3(CCC3)CN2)C1 [Example 15] | 1.9 nM | 791 nM |

Now those with a lower IC50 [2], led by results:

| IC50 [2] | SMILES | IC50 [1] |
| --- | --- | --- |
| 1.03 nM | CC(C)C1(c2nc(C3CCC(F)(F)CC3)no2)CCN(C(=O)[C@@H]2C[C@@H](O)C3(CCC3)CN2)CC1 [Example 12] | 0.34 nM |
| 1.52 nM | O=C([C@@H]1C[C@@H](O)C2(CCC2)CN1)N1CCC(c2noc(C3CC(F)(F)C3)n2)(C(F)(F)F)CC1 [Example 3, (4-(5-(3,3-Difluorocyclobutyl)-1,2,4-oxadiazol-3-yl)-4-(trifluoromethyl)piperidin-1-yl)((7S,9R)-9-hydroxy-6-azaspiro[3.5]nonan-7-yl)methanone] | 0.49 nM |
| 0.69 nM | O=C([C@@H]1C[C@@H](O)C2(CCC2)CN1)N1CCC(c2noc(C3CCC(F)(F)CO3)n2)(C(F)(F)F)CC1 (stereo partly drawn) [Example 64, (4-(5-(5,5-Difluorotetrahydro-2H-pyran-2-yl)-1,2,4-oxadiazol-3-yl)-4-(trifluoromethyl)piperidin-1-yl)((7S,9R)-9-hydroxy-6-azaspiro[3.5]nonan-7-yl)methanone] | 0.74 nM |
| 1.46 nM | O=C([C@@H]1C[C@@H](O)C2(CCC2)CN1)N1CCC(n2nnc(-c3ccc(F)cc3F)n2)CC1 [Example 104] | 0.61 nM |
| 1.53 nM | O=C([C@@H]1C[C@@H](O)C2(CCC2)CN1)N1CCC(c2noc(C3CCC(F)(F)CO3)n2)(C(F)(F)F)CC1 (stereo partly drawn) [Example 50, (4-(5-(5,5-difluorotetrahydro-2H-pyran-2-yl)-1,2,4-oxadiazol-3-yl)-4-(trifluoromethyl)piperidin-1-yl)((7S,9R)-9-hydroxy-6-azaspiro[3.5]nonan-7-yl)methanone] | 0.8 nM |
| 1.47 nM | Cc1ccc(C2(c3nc(C4CC(F)(F)C4)no3)CCN(C(=O)[C@@H]3C[C@@H](O)C4(CCC4)CN3)CC2)cc1 [Example 83] | 0.23 nM |
| 1.45 nM | O=C([C@@H]1C[C@@H](O)C2(CCC2)CN1)N1CCC(c2nnn(-c3ccc(F)cc3)n2)CC1 [Example 89, (4-(2-(4-Fluorophenyl)-2H-tetrazol-5-yl)piperidin-1-yl)((7S,9R)-9-hydroxy-6-azaspiro[3.5]nonan-7-yl)methanone] | 0.6 nM |
| 0.84 nM | O=C([C@@H]1C[C@@H](O)C2(CCC2)CN1)N1CCC(c2ccnc(N3CCC(F)(F)CC3)c2)CC1 [Example 91] | 0.54 nM |
| 1.73 nM | O=C([C@@H]1C[C@@H](O)C2(CCC2)CN1)N1CCC(c2noc(C3CC(F)(F)C3)n2)(C2CC2)CC1 [Example 69] | 1.44 nM |
| 1.25 nM | Cc1ccc(C2(C(=O)NCC3CCC(F)(F)CC3)CCN(C(=O)[C@@H]3CC[C@@]4(CCO4)CN3)CC2)cc1 [Example 84] | 1.92 nM |
| 1.19 nM | CC(C)C1(c2noc(C3CCC(F)(F)CC3)n2)CN(C(=O)[C@@H]2C[C@@H](O)C3(CCC3)CN2)C1 [Example 6] | 1.06 nM |
